The target of one test is hKOR (Homo sapiens, UniProt P41145). Briefly: Radioligand binding assay (Eurofins Cerep), [3H]U69,593 displacement.
The next test addresses T1, α2A adrenergic receptor (Homo sapiens, UniProt P08913).
T1 construct: Eurofins Cerep (contract screening)
T1 sequence (P08913 1-465): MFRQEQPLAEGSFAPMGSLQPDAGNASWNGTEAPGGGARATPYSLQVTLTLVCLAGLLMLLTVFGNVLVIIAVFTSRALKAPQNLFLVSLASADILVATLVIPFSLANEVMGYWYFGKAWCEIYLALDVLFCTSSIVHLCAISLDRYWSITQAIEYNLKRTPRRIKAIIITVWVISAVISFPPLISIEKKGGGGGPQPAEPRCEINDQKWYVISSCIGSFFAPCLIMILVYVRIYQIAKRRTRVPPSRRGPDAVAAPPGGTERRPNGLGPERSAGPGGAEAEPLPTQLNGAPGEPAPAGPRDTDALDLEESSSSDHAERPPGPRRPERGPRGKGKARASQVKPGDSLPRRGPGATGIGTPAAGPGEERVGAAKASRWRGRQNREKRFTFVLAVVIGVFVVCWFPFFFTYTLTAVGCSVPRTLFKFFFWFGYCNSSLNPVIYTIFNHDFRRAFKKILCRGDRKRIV
Briefly: Radioligand binding assay (Eurofins Cerep), [3H]RX 821002 displacement.

The next test concerns the target hDOR (Homo sapiens, UniProt P41143). Briefly: Radioligand binding assay (Eurofins Cerep), [3H]DADLE displacement.
The target of another test is hMOR (Homo sapiens, UniProt P35372). Briefly: Radioligand binding assay (Eurofins Cerep), [3H]DAMGO displacement.
hMOR, sequence (P35372 whole entry): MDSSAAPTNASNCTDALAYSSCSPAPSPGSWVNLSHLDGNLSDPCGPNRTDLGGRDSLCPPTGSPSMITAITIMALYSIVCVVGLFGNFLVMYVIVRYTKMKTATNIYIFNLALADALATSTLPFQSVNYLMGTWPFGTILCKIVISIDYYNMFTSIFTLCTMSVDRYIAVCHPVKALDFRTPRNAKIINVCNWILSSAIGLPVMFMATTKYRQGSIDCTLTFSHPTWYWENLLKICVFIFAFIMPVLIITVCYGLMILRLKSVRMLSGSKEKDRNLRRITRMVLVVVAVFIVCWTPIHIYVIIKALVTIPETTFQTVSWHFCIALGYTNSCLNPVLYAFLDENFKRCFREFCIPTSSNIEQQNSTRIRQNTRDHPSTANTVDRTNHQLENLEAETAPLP
[1] abbreviates: Table B1′, read-out: KOR Ki ± SEM.
[2] abbreviates: alpha2A Ki ± SEM (nM), Table B1′.
Where [3] appears, read: Table B1′, read-out: DOR Ki ± SEM.
[4] abbreviates: Table B1′, read-out: MOR Ki ± SEM.
[5] abbreviates: Table B1′, read-out: alpha2A Ki ± SEM.
[6] abbreviates: Table 3-2, 3 independent experiments, read-out: Ki (nM ± SEM) KOR.
Where [7] appears, read: Ki (nM ± SEM) a2A-AR, Table 3-2, 3 independent experiments.
Setting [8] is: Table 3-2, 3 independent experiments, read-out: Ki (nM ± SEM) DOR.
Where [9] appears, read: Table 3-2, 3 independent experiments, read-out: Ki (nM ± SEM) MOR.
The mark [10] stands for this setting: Table 3-3, 3 independent experiments, read-out: Ki (nM ± SEM) KOR.
[11] abbreviates: Table 3-3, 3 independent experiments, read-out: Ki (nM ± SEM) MOR.

Like-named read-outs stand apart in the source and are kept apart here.

The Ki is the equilibrium dissociation constant of an inhibitor or competing ligand from its target.

hDOR, sequence (P41143 whole entry): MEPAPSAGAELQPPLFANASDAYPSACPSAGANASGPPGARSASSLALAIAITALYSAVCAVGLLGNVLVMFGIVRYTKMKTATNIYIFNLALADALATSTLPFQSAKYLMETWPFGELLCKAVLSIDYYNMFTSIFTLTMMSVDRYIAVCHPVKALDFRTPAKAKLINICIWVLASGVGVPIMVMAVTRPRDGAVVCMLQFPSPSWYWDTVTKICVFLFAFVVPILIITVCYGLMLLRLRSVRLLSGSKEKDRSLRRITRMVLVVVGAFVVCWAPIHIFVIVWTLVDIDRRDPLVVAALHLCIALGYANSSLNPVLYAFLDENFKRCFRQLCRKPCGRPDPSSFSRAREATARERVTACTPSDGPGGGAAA
hKOR, sequence (P41145 whole entry): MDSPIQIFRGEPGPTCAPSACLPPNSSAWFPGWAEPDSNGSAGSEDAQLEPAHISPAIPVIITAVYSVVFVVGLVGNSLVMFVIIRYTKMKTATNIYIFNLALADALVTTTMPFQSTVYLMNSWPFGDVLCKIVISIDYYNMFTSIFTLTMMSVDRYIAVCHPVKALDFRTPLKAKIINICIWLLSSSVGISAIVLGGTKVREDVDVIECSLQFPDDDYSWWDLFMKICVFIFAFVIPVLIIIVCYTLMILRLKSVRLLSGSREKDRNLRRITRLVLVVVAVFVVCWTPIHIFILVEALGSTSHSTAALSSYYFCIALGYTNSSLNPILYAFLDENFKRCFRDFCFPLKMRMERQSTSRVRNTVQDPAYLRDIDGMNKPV

As for `COc1ccccc1C1(O)CCN2CCC(=O)CC2C1` (stereo not drawn), the Ki is greater than 10000 nM on hKOR (setting [1]), 5750 ± 1170 nM on α2A adrenergic receptor (setting [2]), greater than 10000 nM at hDOR (setting [3]) and greater than 10000 nM on hMOR (setting [4]).
In the case of `COC(=O)CC1CCN2CCC(c3ccccc3OC)=CC2C1` (stereo not drawn), the Ki at hKOR (setting [1]) is greater than 10000 nM; at α2A adrenergic receptor (setting [2]), 39 ± 3 nM; on hDOR (setting [3]), greater than 10000 nM; on hMOR (setting [4]), greater than 10000 nM.
For the molecule `COC(=O)CC1CCN2CC=C(c3ccccc3OC)CC2C1` (stereo not drawn), the Ki at hKOR (setting [1]) is greater than 10000 nM; at α2A adrenergic receptor (setting [5]), 15 nM; at hDOR (setting [3]) it was greater than 10000 nM; at hMOR (setting [4]) it was greater than 10000 nM.
For `COC(=O)CC1CCN2CCC(c3ccccc3)=CC2C1` (stereo not drawn), the Ki was 683 ± 142 nM on hKOR (setting [1]), 5 ± 2 nM at α2A adrenergic receptor (setting [5]), greater than 10000 nM at hDOR (setting [3]) and 7930 ± 1340 nM at hMOR (setting [4]).
With `COC(=O)CC1CCN2CC=C(c3ccccc3)CC2C1` (stereo not drawn), the Ki on hKOR (setting [1]) is 957 ± 188 nM; at α2A adrenergic receptor (setting [5]), 7 ± 2 nM; at hDOR (setting [3]), greater than 10000 nM; at hMOR (setting [4]) it was 6980 ± 1450 nM.
`COC(=O)C=C1CCN2CCC(O)(c3ccc(F)cc3)CC2C1` (stereo not drawn): the inhibition constant Ki is greater than 10000 nM on hKOR (setting [1]), 311 ± 73 nM on α2A adrenergic receptor (setting [2]), greater than 10000 nM at hDOR (setting [3]) and 672 ± 222 nM at hMOR (setting [4]).
As for `COC(=O)CC1CCN2CCC(O)(c3ccc(F)cc3)CC2C1` (stereo not drawn), the Ki is greater than 10000 nM on hKOR (setting [1]), 240 ± 63 nM on α2A adrenergic receptor (setting [2]), greater than 10000 nM at hDOR (setting [3]) and 424 ± 203 nM on hMOR (setting [4]).
As for `COC(=O)CC1CCN2CCC(O)(c3ccccc3OC)CC2C1` (single isomer, unassigned), the Ki at hKOR (setting [1]) is greater than 10000 nM; at α2A adrenergic receptor (setting [2]), 3470 ± 1790 nM; on hDOR (setting [3]) it was greater than 10000 nM; at hMOR (setting [4]) it was greater than 10000 nM.
On to `COC=C(C(=O)OC)C1CCN(CCc2c[nH]c3ccc(OC)cc23)CC1` [Compound 3-37], for which the Ki at hKOR (setting [6]) is 1300 ± 129 nM; on α2A adrenergic receptor (setting [7]), 3370 ± 586 nM; at hDOR (setting [8]) it was greater than 10000 nM; on hMOR (setting [9]) it was 733 ± 144 nM. Moreover, the “SR: Selectivity Ratio (KiMOR/Kiα2A)” value at hMOR (Table 3-2) amounted to 0.22.
On to `COC(=O)CC1CCN(CCc2c[nH]c3ccc(OC)cc23)CC1` [Compound 3-38], for which the Ki on hKOR (setting [6]) is 8070 ± 810 nM; at α2A adrenergic receptor (setting [7]), 1590 ± 225 nM; at hDOR (setting [8]), greater than 10000 nM; on hMOR (setting [9]), greater than 10000 nM.
As to `COC=C(C(=O)OC)C1CCN(CCc2c[nH]c3cc(OC)ccc23)CC1` [Compound 3-39], the inhibitory constant (Ki) is 9450 ± 2970 nM on hKOR (setting [6]), greater than 10000 nM on α2A adrenergic receptor (setting [7]), greater than 10000 nM on hDOR (setting [8]) and greater than 10000 nM at hMOR (setting [9]).
Turning to `COC(=O)CC1CCN(CCc2c[nH]c3cc(OC)ccc23)CC1` [Compound 3-40], the Ki at hKOR (setting [6]) was greater than 10000 nM; on α2A adrenergic receptor (setting [7]), 2840 ± 599 nM; at hDOR (setting [8]), greater than 10000 nM; on hMOR (setting [9]), greater than 10000 nM.
Take `COC=C(C(=O)OC)C1CCN(CCc2c[nH]c3c(OC)cccc23)CC1` [Compound 3-41]: the Ki was greater than 10000 nM at hKOR (setting [6]), 4900 ± 829 nM on α2A adrenergic receptor (setting [7]), greater than 10000 nM on hDOR (setting [8]) and 5130 ± 8.35 nM at hMOR (setting [9]). The “SR: Selectivity Ratio (KiMOR/Kiα2A)” value at hMOR (Table 3-2) stood at 1.04.
For the molecule `COC(=O)CC1CCN(CCc2c[nH]c3ccccc23)CC1` [Compound 3-43], the Ki on hKOR (setting [10]) is greater than 10000 nM; on α2A adrenergic receptor (read-out: Ki (nM ± SEM) a2A-AR, Table 3-3, 3 independent experiments), 1840 ± 201 nM; on hDOR (read-out: Ki (nM ± SEM) DOR, Table 3-3, 3 independent experiments), greater than 10000 nM; at hMOR (setting [11]), 8910 ± 1800 nM.
Regarding `COC(=O)CC1CCN(CCc2cn(CC(F)(F)F)c3ccccc23)CC1` [Compound 3-44], the Ki on hKOR (setting [10]) is greater than 10000 nM; on α2A adrenergic receptor (Table 3-3, 3 independent experiments, read-out: Ki (nM ± SEM) a2A-AR), 1940 ± 410 nM; at hDOR (Table 3-3, 3 independent experiments, read-out: Ki (nM ± SEM) DOR), greater than 10000 nM; at hMOR (setting [11]), 1480 ± 406 nM. Also, on hMOR (Table 3-3), the “SR: Selectivity Ratio (KiMOR/Kiα2A)” value came to 0.76.

The values are drawn from patent publication US20260234147A1 (priority 2023, published 2026).
